Results reported in patent US4200642A, “Spiro-oxazolidindiones” (Pfizer Inc., priority 1978, dated 1980).
“And” between values parts separate entries of the source, which are not always exact repeats. Equal entries are not always repeated.

Legend:
[1] = test system: sorbitol accumulation in the sciatic nerve of streptozotocinized (i.e., diabetic) rats; test: inhibition of sorbitol accumulation in the sciatic nerve of streptozotocinized (diabetic) rats; type: in vivo; conditions: measured at 27 hours, vs untreated, values below 20 not always significant; for % Inhibition at mg/kg Dosage 1.5: 1.5 mg/kg orally at 4, 8 and 24 hours after streptozotocin
Procedure: Spiro-oxazolidindiones prepared as described in the above examples were tested for their ability to reduce or inhibit sorbitol accumulation in the sciatic nerve of streptozotocinized (i.e., diabetic) rats by the procedure essentially described in U.S. Pat. No. 3,821,383. In the present study, the amount of sorbitol accumulation in the sciatic nerves was measured 27 hours after induction of diabetes. The compounds were administered orally at the dose levels indicated at 4, 8 and 24 hours following the administration of streptozotocin. The results obtained in this manner are presented below in terms of percent inhibition afforded by the test compound as compared to the case where no compound was administered (i.e., the untreated animal where sorbitol levels normally rise from approximately […]. tissue to as high as 400 mM/g. tissue in the 27-hour test period). In this test values below 20 are not always experimentally and statistically significant.

aldose reductase = target: T1, aldose reductase (Bos taurus, UniProt P16116); test: inhibition of aldose reductase enzyme activity (partially purified enzyme from calf lens); type: biochemical; conditions: / indicates results of duplicate tests; for inhibition at 1 µM: 10^-6 M
T1 construct: partially purified aldose reductase enzyme obtained from calf lens; from tissue; host or cells: calf lens
Procedure: Spiro-oxazolidindiones prepared as described in the previous examples were tested for their ability to reduce or inhibit aldose reductase enzyme activity, following the procedure described in U.S. Pat. No. 3,821,383 and based on the procedure of Hayman et al., Journal of Biological Chemistry, 240, 877 (1965). The substrate employed was partially purified aldose reductase enzyme obtained from calf lens. The results obtained with each compound at a concentration of 10^-6 M are expressed as percent inhibition of enzyme activity.

Row | Compound | % Inhibition at 10^-6 M (aldose reductase) | inhibition at 1 µM (aldose reductase) [%] | % Inhibition at mg/kg Dosage 1.5 [1] [%] | % Inhibition at mg/kg Dosage 5 ([1]; 5 mg/kg orally at 4, 8 and 24 hours after streptozotocin) [%] | % Inhibition at mg/kg Dosage 15 ([1]; 15 mg/kg orally at 4, 8 and 24 hours after streptozotocin) [%]
1 | Cc1cc(Cl)cc2c1OCCC21OC(=O)NC1=O (stereo not drawn) [Example 33, 6-Chloro-8-methyl-spiro[4H-2,3-dihydrobenzopyran(4,5')oxazolidin]-2',4'-dione] | 99% | 81 | 33 | – | –
2 | O=C1NC(=O)C2(CCOc3ccc(Cl)cc32)O1 (stereo not drawn) [Example 3, 6-Chloro-spiro[4H-2,3-dihydrobenzopyran(4,5')oxazolidin]-2',4'-dione] | 68% | 86 | 28 | – | –
3 | O=C1NC(=O)C2(CCOc3ccc(Br)cc32)O1 (stereo not drawn) [Example 29, 6-Bromo-spiro[4H-2,3-dihydrobenzopyran(4,5')oxazolidin]-2',4'-dione] | 87% | 100 | 35 | – | –
4 | O=C1NC(=O)C2(CCSc3ccc(F)cc32)O1 (stereo not drawn) [Example 31, 6-Fluoro-spiro[4H-2,3-dihydrobenzothiopyran(4,5')oxazolidin]-2',4'-dione] | – | 61 | – | – | –

Now from value to molecule, other results behind:

Row | % Inhibition at 10^-6 M (aldose reductase) | inhibition at 1 µM (aldose reductase) [%] | Compound | % Inhibition at mg/kg Dosage 1.5 [1] [%] | % Inhibition at mg/kg Dosage 5 ([1]; 5 mg/kg orally at 4, 8 and 24 hours after streptozotocin) [%] | % Inhibition at mg/kg Dosage 15 ([1]; 15 mg/kg orally at 4, 8 and 24 hours after streptozotocin) [%]
5 | 70% and 100% | – | O=C1NC(=O)C2(CCSc3ccc(Cl)cc32)O1 (stereo not drawn) [Example 34, 6-Chloro-spiro[4H-2,3-dihydrobenzothiopyran(4,5')oxazolidin]-2',4'-dione] | 14 | – | –
6 | – | 96 | O=C1NC(=O)C2(CCOc3ccc(Cl)cc32)O1 (single isomer, unassigned; (-)) [Example 35, (-)-6-Chloro-spiro[4H-2,3-dihydrobenzopyran(4,5')oxazolidin]-2',4'-dione] | 41 | 67 | 88
7 | – | 42 | O=C1NC(=O)C2(CCSc3ccccc32)O1 (stereo not drawn) [Example 30, Spiro[4H-2,3-dihydrobenzothiopyran(4,5')oxazolidin]-2',4'-dione] | – | – | –
8 | – | 65 | O=C1NC(=O)C2(CCOc3ccc(F)cc32)O1 (stereo not drawn) [Example 28, 6-Fluoro-spiro[4H-2,3-dihydrobenzopyran(4,5')oxazolidin]-2',4'-dione] | 8 | – | –
9 | – | 100 | O=C1NC(=O)C2(CCOc3c(Cl)cc(Cl)cc32)O1 (stereo not drawn) [Example 32, 6,8-Dichloro-spiro[4H-2,3-dihydrobenzopyran(4,5')oxazolidin]-2',4'-dione] | 44 | – | –
